Results published in article PMC5515969, “Effects of 31 FDA approved small-molecule kinase inhibitors on isolated rat liver mitochondria” (Archives of Toxicology, 2016).
Like-named read-outs stand apart in the source and are kept apart here.

Assays:
RCC I–V = experiment: Activities of RCC I–V, overall statements; assay type: biochemical, rat; conditions: submitochondrial particles; for RCCs inhibited: up to 100-fold Cmax or highest testable concentration
Procedure: KIs were incubated with submitochondrial particles (1 mg/ml) for 15 min and then RCC I–V activities measured. […] The activities of DMSO-treated samples (controls) were set as 1. […] The difference between the activity from rotenone-containing buffer and rotenone-absent buffer was considered as RCC I activity. […] For measuring RCC I/V and II activity, the changes in absorbance at 340 and 600 nm, respectively, were determined every 1 min for 6 min. For measuring RCC III and RCC IV, the changes in absorbance at 550 nm were measured every 10 s for 2 min.

RCC V = RCC V activity in submitochondrial particles; assay type: biochemical, rat; conditions: for RCC activity V: 15 min, DMSO-treated = 100; for RCC V at 5XCmax: key: 0 indicates that the drug had no effects (negative)
In short: (§1)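 First, submitochondrial particles (1 mg/ml) are incubated with inhibitor for 15 min. Next, complex activities are followed spectrophotometrically, with RCC I taken as the difference between buffers lacking and containing rotenone. Finally, activities are expressed relative to DMSO controls set at 1.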

RCC I = RCC I activity in submitochondrial particles; assay type: biochemical, rat; design: key to RCC I at 10XCmax / RCC I at 100XCmax / RCC I at 50XCmax / RCC I at 30XCmax / RCC I at 20XCmax: activity relative to DMSO-treated controls (control set as 1 = 100%); conditions: for RCC activity I: 15 min
In short: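 Activity relative to DMSO (set as 1) after 15-min exposure of submitochondrial particles (1 mg/ml) to compound. RCC I is defined as rotenone-sensitive activity and RCC II is followed at 600 nm over 6 min.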

RCC II = molecular target: T1, RCC II (Rattus norvegicus, UniProt P21913+Q641Z9+Q6PCT8+Q920L2); experiment: RCC II activity in submitochondrial particles; assay type: biochemical; design: key: activity relative to DMSO-treated controls (control set as 1 = 100%)
T1 construct: Submitochondrial particles were prepared by subjecting the intact mitochondria to three successive freeze–thaw cycles; from tissue; host or cells: rat liver mitochondria, used as submitochondrial particles
T1 sequence (Q920L2 35-656): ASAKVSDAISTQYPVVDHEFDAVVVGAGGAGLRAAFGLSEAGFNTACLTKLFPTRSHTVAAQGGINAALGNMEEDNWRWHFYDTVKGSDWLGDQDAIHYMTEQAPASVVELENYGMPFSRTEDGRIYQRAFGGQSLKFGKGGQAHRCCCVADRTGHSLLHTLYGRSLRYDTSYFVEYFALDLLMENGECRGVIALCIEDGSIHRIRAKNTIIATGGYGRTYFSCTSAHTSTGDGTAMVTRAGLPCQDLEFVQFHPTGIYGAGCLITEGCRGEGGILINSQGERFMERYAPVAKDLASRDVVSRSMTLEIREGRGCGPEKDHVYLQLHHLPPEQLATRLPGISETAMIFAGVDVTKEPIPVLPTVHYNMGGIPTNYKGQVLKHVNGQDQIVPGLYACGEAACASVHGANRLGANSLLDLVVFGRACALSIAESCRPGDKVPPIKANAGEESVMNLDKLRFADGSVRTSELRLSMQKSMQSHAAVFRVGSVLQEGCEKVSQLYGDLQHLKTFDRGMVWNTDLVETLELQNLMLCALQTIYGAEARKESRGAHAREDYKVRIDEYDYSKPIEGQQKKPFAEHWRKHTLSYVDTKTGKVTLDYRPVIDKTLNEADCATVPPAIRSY
T1 sequence (P21913 31-282): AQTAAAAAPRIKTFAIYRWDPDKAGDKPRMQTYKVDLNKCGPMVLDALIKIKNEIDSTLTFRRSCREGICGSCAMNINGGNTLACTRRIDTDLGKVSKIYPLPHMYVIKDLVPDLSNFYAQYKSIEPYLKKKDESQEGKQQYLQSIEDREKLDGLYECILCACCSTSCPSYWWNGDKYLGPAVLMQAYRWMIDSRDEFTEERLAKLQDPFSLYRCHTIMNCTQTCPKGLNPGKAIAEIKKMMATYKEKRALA
T1 sequence (Q641Z9 1-169): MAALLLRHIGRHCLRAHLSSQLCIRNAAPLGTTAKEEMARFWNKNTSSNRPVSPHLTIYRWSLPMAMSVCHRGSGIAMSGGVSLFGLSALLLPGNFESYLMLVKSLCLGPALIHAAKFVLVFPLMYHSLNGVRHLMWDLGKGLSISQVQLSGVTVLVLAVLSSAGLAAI
T1 sequence (Q6PCT8 57-159): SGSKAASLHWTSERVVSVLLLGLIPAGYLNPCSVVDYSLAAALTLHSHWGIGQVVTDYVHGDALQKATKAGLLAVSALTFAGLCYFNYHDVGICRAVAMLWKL
In short: as §1

[1] = ref product labeling, cited from earlier work; for Labeling for cardiotoxicity: BBW: black box warning, W&P: Warnings and Precautions
[2] = test system: isolated rat liver mitochondria; experiment: Mitochondrial toxicity, any endpoint, intact mitochondria and submitochondrial particles; assay type: biochemical; conditions: for lowest concentration causing significant mitochondrial toxicity: any endpoint; for mitochondrial injury: concentrations equal to 100-fold Cmax
In short: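 Rat liver mitochondria isolated by differential centrifugation in sucrose/Tris-MOPS/EGTA buffer pH 7.4, adjusted to 1 mg/ml protein before treatment. Kinase inhibitors added at 1:1000 dilution of stock; final DMSO 0.1%, with 0.1% DMSO controls.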

[3] = Solubility of DMSO stock for 100X/50X Cmax testing; assay type: physicochemical; conditions: precipitation of DMSO stock
From the text: (§2) Supplement 204_2016_1918_MOESM3_ESM.xlsx, sheet "Sheet1" | column: 100 Cmax; 50 Cmax; note

[4] = design: method as in product labeling; conditions: ref product labeling, cited from earlier work
[5] = Solubility of drug in DMSO stock / reaction buffer at multiples of Cmax; assay type: physicochemical
From the text: as §2

[6] = relative to DMSO treated samples

SMILES | RCCs inhibited (RCC I–V) | RCC V at 5XCmax (RCC V; DMSO treated samples set as 1) | RCC V at 50XCmax (RCC V; DMSO treated samples set as 1) | RCC I at 10XCmax (RCC I; DMSO treated samples set as 1) | RCC II at 1.0XCmax (RCC II; DMSO treated samples set as 1) | RCC II at 2.5XCmax (RCC II; DMSO treated samples set as 1) | RCC II at 5XCmax (RCC II; DMSO treated samples set as 1) | RCC II at 10XCmax (RCC II; DMSO treated samples set as 1) | RCC II at 20XCmax (RCC II; DMSO treated samples set as 1) | RCC II at 30XCmax (RCC II; DMSO treated samples set as 1) | RCC II at 50XCmax (RCC II; DMSO treated samples set as 1) | RCC II at 100XCmax (RCC II; DMSO treated samples set as 1) | Labeling for cardiotoxicity [1] | Potential for cardiotoxicity (based on labeling) [1] | other results
Cc1cc(Nc2ncc(Cl)c(Nc3ccccc3S(=O)(=O)C(C)C)n2)c(OC(C)C)cc1C1CCNCC1 [Ceritinib] | all five RCCs | 0 | 71.23±9.65 | 0 | 0 | 0 | 0 | 0 | 0 | 0 | 0 | 69.91±10.00 | W&P:QT Interval Prolongation; Bradycardia | 1 | RCC activity V (RCC V; 50-fold Cmax): 71.23 ± 9.65 % of control; RCC activity V (RCC V; 100-fold Cmax): 34.25 ± 2.09 % of control; RCC V at 100XCmax (RCC V; 100XCmax, DMSO treated samples set as 1): 34.25±2.09; RCC activity I (RCC I; 50-fold Cmax, DMSO-treated = 100): 94.04 ± 3.32 % of control; RCC activity I (RCC I; 100-fold Cmax, DMSO-treated = 100): 63.74 ± 13.12 % of control; RCC I at 100XCmax (RCC I; 100XCmax, DMSO-treated = 100): 63.74±13.12
CC(C)(C)c1nc(-c2cccc(NS(=O)(=O)c3c(F)cccc3F)c2F)c(-c2ccnc(N)n2)s1 [Dabrafenib] | no effects on RCC activities | 0 | 0 | 0 | 0 | 0 | 0 | 0 | 0 | 0 | 0 | 0 | W&P: Cardiomyopathy | 1 | lowest concentration causing significant mitochondrial toxicity [2]: 5 fold Cmax
CC[C@H](Nc1ncnc2[nH]cnc12)c1nc2cccc(F)c2c(=O)n1-c1ccccc1 [Idelalisib] | – | 0 | 0 | 0 | 0 | 0 | 0 | 0 | 0 | 0 | 0 | 0 | – | 0 | note (DMSO stock) [3]: 464 mM will precipitate; mitochondrial injury [2]: mitochondrial injury was induced
CNC(=O)c1cc(Oc2ccc(NC(=O)Nc3ccc(Cl)c(C(F)(F)F)c3)c(F)c2)ccn1 [Regorafenib] | RCC II | – | – | – | – | – | – | – | – | – | – | – | – | – | lowest concentration inhibiting RCCs (RCC I–V): 10 fold Cmax; RCC V at 5XCmax (RCC V; [6]): 0; RCC activity V (RCC V; 10-fold Cmax): 90.36 ± 13.39 % of control; Labeling for cardiotoxicity ([4]; BBW: black box warning, W&P: Warnings and Precautions): W&P: Cardiac Ischemia and Infarction; Potential for cardiotoxicity (based on labeling) [4]: 1; RCC activity I (RCC I; 10-fold Cmax, DMSO-treated = 100): 99.37 ± 3.35 % of control; RCC I at 10XCmax (RCC I; [6]): 0; RCC II at 1.0XCmax (RCC II; [6]): 0; RCC II at 2.5XCmax (RCC II; [6]): 0; RCC II at 5XCmax (RCC II; [6]): 0; RCC II at 10XCmax (RCC II; [6]): 83.50±2.91; note (solubility) [5]: 808 mM will precipitate; lowest concentration causing significant mitochondrial toxicity [2]: equal to the Cmax; mitochondrial injury [2]: mitochondrial injury was induced
CC(=O)Nc1cccc(-n2c(=O)n(C3CC3)c(=O)c3c(Nc4ccc(I)cc4F)n(C)c(=O)c(C)c32)c1 [Trametinib] | – | 0 | 0 | 0 | 0 | 0 | 0 | 0 | 0 | 0 | 0 | 0 | W&P: Cardiomyopathy | 1 | –
CN(C)C/C=C/C(=O)Nc1cc2c(Nc3ccc(F)c(Cl)c3)ncnc2cc1O[C@H]1CCOC1 [afatinib dimaleate] | – | 0 | 0 | 0 | 0 | 0 | 0 | 0 | 0 | 0 | 0 | 0 | – | 0 | –
CC(=O)c1c(C)c2cnc(Nc3ccc(N4CCNCC4)cn3)nc2n(C2CCCC2)c1=O.Cl [palbociclib hydrochloride] | – | 0 | 0 | 0 | 0 | 0 | 0 | 0 | 0 | 0 | 0 | 0 | – | 0 | note (DMSO stock) [3]: 100X will precipitate
